Test [1] relates to human gastric cancer cell line MGC-803. Put plainly: MTT assay, MGC-803 cells. Type of test: cell-based. As for the experimental part:
(§1) The in vitro antitumor activity of the newly synthesized compounds 5a–5n were evaluated against a panel of three human cancer cell lines, including human gastric cancer cell line MGC-803, human prostate cancer cell line PC3, and human breast cancer cell line Bcap-37, and one normal cell line NIH3T3 (mouse embryo fibroblast cell line) by MTT method. Adriamycin (ADM) was chosen as a reference drug due to its availability and widespread use. Each experiment was repeated at least three times.
(§2) Human gastric cancer cell line MGC-803, human prostate cancer cell line PC3, and human breast cancer cell line Bcap-37 and one normal cell line NIH3T3 were obtained from Cell Bank of Type Culture Collection of Chinese Academy of Sciences (Shanghai, China). NIH3T3 was routinely maintained in a DMEM medium, while all the other cell lines were cultured in a 1640 medium. All the cells were grown in the medium supplemented with 10% FBS at 37 °C with 5% CO2.
(§3) The growth-inhibitory effects of the test compounds were determined on MGC-803, PC3, Bcap-37, and NIH3T3 cells. All cell types were seeded into 96-well plates at a density of 2 × 10^3 cells/well 100 μL of the proper culture medium and incubated with increasing concentrations of the compounds at 37 °C under cell culturing conditions. An MTT assay (Roche Molecular Biochemicals, 1465-007) was performed 72 h later according to the instructions provided by Roche. The precipitated formazan crystals were dissolved in SDS, and the absorbance was read at 595 nm with a microplate reader (BIO-RAD, model 680), which is directly proportional to the number of living cells in culture. The experiment was performed in triplicate. The percentage cytotoxicity was calculated using the formula. %Cytotoxicity=Controlabs-Blankabs-Testabs-Blankabs/Controlabs-Blankabs×100

Test [2] concerns MGC-803 cells. Put plainly: TUNEL assay. Type of test: cell-based, human. To be noted: 5 μM, 5f 6, 12, and 18 h, HCPT 18 h. The procedure:
To further verify AO/EB and Hoechst 33,258 staining results, TUNEL assay was also carried out. TUNEL (Terminal deoxynucleotidyl Transferase Biotin-dUTP Nick End Labeling) is a very popular assay for identifying apoptotic cells. The assay identifies apoptotic cells in situ by using terminal deoxynucleotidyl transferase (TdT) to transfer biotin-dUTP to these strand breaks of cleaved DNA. The biotin-labeled cleavage sites are then detected by reaction with HRP conjugated streptavidin and visualized by DAB showing brown color [24]. MGC-803 cells treated with compound 5f at 5 μM for 6, 12, and 18 h were stained with TUNEL, with HCPT as positive control at 5 μM for 18 h. […] We further concluded that compound 5f induced apoptosis against MGC-803.

Test [3] concerns MGC-803 cells. Put plainly: Flow cytometry, Annexin V/PI double staining. Type of test: cell-based, human. The note with it: for apoptosis ratio: MGC-803 cells, 10 μM, 24 h. The procedure: In addition, the apoptosis ratios induced by compound 5f in MGC-803 cells were determined by flow cytometry, using Annexin V/PI double staining. Flow cytometry was performed on the total cell population (including both adherent and detached cells) and apoptosis detection was carried out as mentioned above. This double staining procedure discriminated necrotic cells (Q1, Annexin^−/PI^+), late apoptotic cells (Q2, Annexin^+/PI^+), intact cells (Q3, Annexin^−/PI^−) and early apoptotic cells (Q4, Annexin^+/PI^−). […] For the positive control HCPT, the apoptosis ratio was only 22.3% after 24 h of treatment at a concentration of 10 μM.
To further quantitative analysis of apoptosis, the cells were washed with PBS, stained with annexinV-FITC and propidium iodide (PI) using the AnnexinV-FITC kit (KeyGEN BioTECH). The cells were then subjected to flow cytometry according to manufacturer’s instructions and the stained cells were analyzed by FACS can flow cytometer (Becton–Dickinson, CA, USA).

For test [4], the system named is human breast cancer cell line Bcap-37. Put plainly: MTT assay, Bcap-37 cells. Type of test: cell-based. As for the experimental part: as §1, §2, §3
For test [5], the system named is human prostate cancer cell line PC3. Put plainly: MTT assay, PC3 cells. Type of test: cell-based. The procedure: as §1, §2, §3
The subject of test [6] is MGC-803 cells. Put plainly: Hoechst 33,258 staining for apoptosis. The note with it: MGC-803 cells, 1, 5, and 10 μM, 12 h. Type of test: cell-based, human. As for the experimental part:
Membrane-permeable Hoechst 33,258 was a blue fluorescent dye and stained the cell nucleus. […] MGC-803 cells treated with compound 5f at concentrations of 1, 5, and 10 μM for 12 h were stained with Hoechst 33,258, with HCPT as positive control at 10 μM for 12 h. The results are illustrated in Fig. 2b.
Cells were seeded in 6-well culture plates at a density of 5 × 10^4 cells/mL in 0.6 mL of medium and allowed to adhere to the plates overnight. The cells were incubated with different concentrations of compounds or vehicle solution (0.1% DMSO) in a medium containing 10% FBS for 12 h. After the treatment, the cells were fixed with 4% paraformaldehyde for 10 min, followed by incubation with Hoechst 33,258 staining solution (Beyotime) for 5 min and finally analyzed for morphological characteristics of cell apoptosis under a fluorescence microscope (Olympus Co., Japan).

The test system of test [7] is MGC-803 cells. Put plainly: AO/EB staining for apoptosis. The class given is cell-based, human. To be noted: 12 h, 5f at 1, 5, 10 μM, HCPT at 10 μM. As for the experimental part:
It is well known that AO can pass through cell membranes, but EB cannot. Under the fluorescence microscope, living cells appear green. Necrotic cells stain red but have a nuclear morphology resembling that of viable cells. Apoptotic cells appear green, and morphological changes such as cell blebbing and formation of apoptotic bodies will be observed.
Representative images of the cells treated with 10 μM of HCPT (used as positive control) and 1, 5, 10 μM of compound 5f for 12 h are shown in Fig. 2a.
Cells were seeded in 6-well culture plates at a density of 5 × 10^4 cells/mL in 0.6 mL of medium and allowed to adhere to the plates overnight. The cells were incubated with different concentrations of compounds or vehicle solution (0.1% DMSO) in a medium containing 10% FBS for 12 h. After the treatment, the cover slip with monolayer cells was inverted on the glass slide with 20 μL of AO/EB stain (100 μg/mL), and finally analyzed for morphological characteristics of cell apoptosis under a fluorescence microscope (Olympus Co., Japan).

The test system of test [8] is normal cell line NIH3T3 (mouse embryo fibroblast cell line). Put plainly: MTT assay, NIH3T3 normal cells. The class given is cell-based. The note with it: 72 h, read-out: Inhibition rates against different cells (%) NIH3T3. As for the experimental part: as §1, §2, §3

Molecules are shown by their SMILES.

Turning to `Cc1ccc2ncnc(Oc3ccccc3/C=C/C(=O)/C=C/c3c(Cl)cccc3Cl)c2c1` [Compound 5f, (1E,4E)-1-(2,6-dichlorophenyl)-5-(2-((6-methylquinazolin-4-yl)oxy)phenyl)penta-1,4-dien-3-one], the inhibition at 10 µM in test [1] (10 μM, 72 h, read-out: Inhibition rates against different cells (%) MGC-803) was 90.7 ± 0.6%; in test [4] (Bcap37, 10 μM, 72 h, read-out: Inhibition rates against different cells (%) Bcap-37), 76.5 ± 1.9%; in test [5] (PC-3, 10 μM, 72 h, read-out: Inhibition rates against different cells (%) PC3) it was 93 ± 1.8%; in test [8], 21.5 ± 2.7%. In addition, the IC50 in test [1] (72 h after treatment) was found to be 0.85 ± 0.43 µM; in test [4] (Bcap37, 72 h after treatment), 4.98 ± 0.39 µM; in test [5] (PC-3, 72 h after treatment) it was 1.37 ± 0.22 µM. Moreover, in test [2], the TUNEL staining result is “appeared as brown precipitate”. The “apoptosis of MGC-803 cells over time” value in test [3] (10 μM for 6, 12, and 24 h) was “gradually increased in a time-dependent manner”. Further, the apoptosis ratio in test [3] is reported as 26.4%. Also, the “Hoechst 33,258 staining, apoptotic morphology” value in test [6] is “exhibited strong blue fluorescence and revealed typical apoptotic morphology”. Further, the “AO/EB staining, apoptotic morphology” value in test [7] is recorded as “apoptotic cells with typical apoptotic features”.

As for `CC[C@@]1(O)C(=O)OCc2c1cc1n(c2=O)Cc2cc3cc(O)ccc3nc2-1` [HCPT, 10-hydroxyl camptothecine, reference compound], the TUNEL staining result in test [2] is reported as “appeared as brown precipitate”. In addition, in test [3], the apoptosis ratio was 22.3%. Further, in test [7], the “AO/EB staining, apoptotic morphology” value is listed as “apoptotic cells with typical apoptotic features”.

(Values after publication PMC5352699, “Synthesis and in vitro antitumor activity of (1E,4E)-1-aryl-5-(2-((quinazolin-4-yl)oxy)phenyl)-1,4-pentadien-3-one derivatives” (Chemistry Central Journal, 2017).)
